# Measured values published in patent US20100267561A1, “HERBICIDAL PYRIDAZINONE DERIVATIVES” (priority 2007, published 2010).
# Key:
# Experiment in all cases: Test E pre-/postemergence plant response
# Type in all cases: in vivo
# Conditions in all cases: scale 0 to 100
# [1] = system: large crabgrass (Digitaria sanguinalis)
# Method in brief: (§1)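 Plants scored visually versus controls on a 0–100 scale (100 = complete control) 14 to 21 days after treatment in the greenhouse. Test chemicals in a surfactant-containing non-phytotoxic solvent were applied to soil preemergence or to 1- to 4-leaf plants, 2–18 cm tall.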
# [2] = system: guineagrass (Panicum maximum)
# Method in brief: as §1
# [3] = system: black mustard (Brassica nigra)
# Method in brief: as §1
# [4] = system: goosegrass (Eleusine indica)
# Method in brief: as §1
# [5] = system: itchgrass (Rottboellia cochinchinensis)
# Method in brief: as §1
# [6] = system: purple nutsedge (Cyperus rotundus)
# Method in brief: as §1
# [7] = system: common mallow (Malva sylvestris)
# Method in brief: as §1
# [8] = system: green foxtail (Setaria viridis)
# Method in brief: as §1
# [9] = system: surinam grass (Brachiaria decumbens)
# Method in brief: as §1
# [10] = system: dallisgrass (Paspalum dilatatum)
# Method in brief: as §1
# [11] = system: broadleaf signalgrass (Brachiaria platyphylla)
# Method in brief: as §1
# [12] = system: common purslane (Portulaca oleracea)
# Method in brief: as §1
# [13] = system: bermudagrass (Cynodon dactylon)
# Method in brief: as §1
# [14] = system: quackgrass (Elytrigia repens)
# Method in brief: as §1
smiles,measurement,setting,value
Cc1cc(-c2ccc(Cl)cc2)nn1-c1c(OS(C)(=O)=O)cnn(C)c1=O [Compound 36],"Plant response rating, Crabgrass, Large","[1]; 8 g ai/ha, Preemergence",35
same,"Plant response rating, Crabgrass, Large","[1]; 16 g ai/ha, Preemergence",95
same,"Plant response rating, Crabgrass, Large","[1]; 31 g ai/ha, Preemergence",98
same,"Plant response rating, Crabgrass, Large","[1]; 62 g ai/ha, Preemergence",98
same,"Plant response rating, Crabgrass, Large","[1]; Postemergence, 8 g ai/ha",65
same,"Plant response rating, Crabgrass, Large","[1]; Postemergence, 16 g ai/ha",70
same,"Plant response rating, Crabgrass, Large","[1]; Postemergence, 31 g ai/ha",75
same,"Plant response rating, Crabgrass, Large","[1]; Postemergence, 62 g ai/ha",80
same,"Plant response rating, Guineagrass","[2]; 16 g ai/ha, Preemergence",100
same,"Plant response rating, Guineagrass","[2]; 31 g ai/ha, Preemergence",100
same,"Plant response rating, Guineagrass","[2]; 62 g ai/ha, Preemergence",100
same,"Plant response rating, Guineagrass","[2]; Postemergence, 8 g ai/ha",35
same,"Plant response rating, Guineagrass","[2]; Postemergence, 16 g ai/ha",75
same,"Plant response rating, Guineagrass","[2]; Postemergence, 31 g ai/ha",90
same,"Plant response rating, Guineagrass","[2]; Postemergence, 62 g ai/ha",90
same,"Plant response rating, Mustard, Black","[3]; 8 g ai/ha, Preemergence",0
same,"Plant response rating, Mustard, Black","[3]; 16 g ai/ha, Preemergence",0
same,"Plant response rating, Mustard, Black","[3]; 31 g ai/ha, Preemergence",0
same,"Plant response rating, Mustard, Black","[3]; 62 g ai/ha, Preemergence",0
same,"Plant response rating, Mustard, Black","[3]; Postemergence, 8 g ai/ha",0
same,"Plant response rating, Mustard, Black","[3]; Postemergence, 16 g ai/ha",0
same,"Plant response rating, Mustard, Black","[3]; Postemergence, 31 g ai/ha",0
same,"Plant response rating, Mustard, Black","[3]; Postemergence, 62 g ai/ha",0
same,"Plant response rating, Goosegrass","[4]; 8 g ai/ha, Preemergence",30
same,"Plant response rating, Goosegrass","[4]; 16 g ai/ha, Preemergence",98
same,"Plant response rating, Goosegrass","[4]; 31 g ai/ha, Preemergence",98
same,"Plant response rating, Goosegrass","[4]; 62 g ai/ha, Preemergence",100
same,"Plant response rating, Goosegrass","[4]; Postemergence, 8 g ai/ha",0
same,"Plant response rating, Goosegrass","[4]; Postemergence, 16 g ai/ha",35
same,"Plant response rating, Goosegrass","[4]; Postemergence, 31 g ai/ha",40
same,"Plant response rating, Goosegrass","[4]; Postemergence, 62 g ai/ha",75
same,"Plant response rating, Itchgrass","[5]; 16 g ai/ha, Preemergence",65
same,"Plant response rating, Itchgrass","[5]; 31 g ai/ha, Preemergence",75
same,"Plant response rating, Itchgrass","[5]; 62 g ai/ha, Preemergence",90
same,"Plant response rating, Itchgrass","[5]; Postemergence, 8 g ai/ha",0
same,"Plant response rating, Itchgrass","[5]; Postemergence, 16 g ai/ha",40
same,"Plant response rating, Itchgrass","[5]; Postemergence, 31 g ai/ha",50
same,"Plant response rating, Itchgrass","[5]; Postemergence, 62 g ai/ha",60
same,"Plant response rating, Nutsedge, Purple","[6]; 16 g ai/ha, Preemergence",0
same,"Plant response rating, Nutsedge, Purple","[6]; 31 g ai/ha, Preemergence",0
same,"Plant response rating, Nutsedge, Purple","[6]; 62 g ai/ha, Preemergence",0
same,"Plant response rating, Nutsedge, Purple","[6]; Postemergence, 8 g ai/ha",0
same,"Plant response rating, Nutsedge, Purple","[6]; Postemergence, 16 g ai/ha",0
same,"Plant response rating, Nutsedge, Purple","[6]; Postemergence, 31 g ai/ha",0
same,"Plant response rating, Nutsedge, Purple","[6]; Postemergence, 62 g ai/ha",0
same,"Plant response rating, Mallow","[7]; 16 g ai/ha, Preemergence",0
same,"Plant response rating, Mallow","[7]; 31 g ai/ha, Preemergence",0
same,"Plant response rating, Mallow","[7]; 62 g ai/ha, Preemergence",0
same,"Plant response rating, Mallow","[7]; Postemergence, 8 g ai/ha",0
same,"Plant response rating, Mallow","[7]; Postemergence, 16 g ai/ha",0
same,"Plant response rating, Mallow","[7]; Postemergence, 31 g ai/ha",0
same,"Plant response rating, Mallow","[7]; Postemergence, 62 g ai/ha",0
same,"Plant response rating, Foxtail, Green","[8]; 8 g ai/ha, Preemergence",15
same,"Plant response rating, Foxtail, Green","[8]; 16 g ai/ha, Preemergence",60
same,"Plant response rating, Foxtail, Green","[8]; 31 g ai/ha, Preemergence",95
same,"Plant response rating, Foxtail, Green","[8]; 62 g ai/ha, Preemergence",100
same,"Plant response rating, Foxtail, Green","[8]; Postemergence, 8 g ai/ha",35
same,"Plant response rating, Foxtail, Green","[8]; Postemergence, 16 g ai/ha",50
same,"Plant response rating, Foxtail, Green","[8]; Postemergence, 31 g ai/ha",75
same,"Plant response rating, Foxtail, Green","[8]; Postemergence, 62 g ai/ha",75
same,"Plant response rating, Surinam Grass","[9]; 16 g ai/ha, Preemergence",95
same,"Plant response rating, Surinam Grass","[9]; 31 g ai/ha, Preemergence",100
same,"Plant response rating, Surinam Grass","[9]; 62 g ai/ha, Preemergence",100
same,"Plant response rating, Surinam Grass","[9]; Postemergence, 8 g ai/ha",65
same,"Plant response rating, Surinam Grass","[9]; Postemergence, 16 g ai/ha",65
same,"Plant response rating, Surinam Grass","[9]; Postemergence, 31 g ai/ha",80
same,"Plant response rating, Surinam Grass","[9]; Postemergence, 62 g ai/ha",100
same,"Plant response rating, Dallisgrass","[10]; 8 g ai/ha, Preemergence",35
same,"Plant response rating, Dallisgrass","[10]; 16 g ai/ha, Preemergence",60
same,"Plant response rating, Dallisgrass","[10]; 31 g ai/ha, Preemergence",75
same,"Plant response rating, Dallisgrass","[10]; 62 g ai/ha, Preemergence",98
same,"Plant response rating, Dallisgrass","[10]; Postemergence, 8 g ai/ha",0
same,"Plant response rating, Dallisgrass","[10]; Postemergence, 16 g ai/ha",20
same,"Plant response rating, Dallisgrass","[10]; Postemergence, 31 g ai/ha",30
same,"Plant response rating, Dallisgrass","[10]; Postemergence, 62 g ai/ha",50
same,"Plant response rating, Signalgrass","[11]; 16 g ai/ha, Preemergence",70
same,"Plant response rating, Signalgrass","[11]; 31 g ai/ha, Preemergence",100
same,"Plant response rating, Signalgrass","[11]; 62 g ai/ha, Preemergence",100
same,"Plant response rating, Signalgrass","[11]; Postemergence, 8 g ai/ha",10
same,"Plant response rating, Signalgrass","[11]; Postemergence, 16 g ai/ha",50
same,"Plant response rating, Signalgrass","[11]; Postemergence, 31 g ai/ha",90
same,"Plant response rating, Signalgrass","[11]; Postemergence, 62 g ai/ha",100
same,"Plant response rating, Purslane","[12]; 16 g ai/ha, Preemergence",0
same,"Plant response rating, Purslane","[12]; 31 g ai/ha, Preemergence",0
same,"Plant response rating, Purslane","[12]; 62 g ai/ha, Preemergence",0
same,"Plant response rating, Purslane","[12]; Postemergence, 8 g ai/ha",0
same,"Plant response rating, Purslane","[12]; Postemergence, 16 g ai/ha",0
same,"Plant response rating, Purslane","[12]; Postemergence, 31 g ai/ha",0
same,"Plant response rating, Purslane","[12]; Postemergence, 62 g ai/ha",0
same,"Plant response rating, Bermudagrass","[13]; 8 g ai/ha, Preemergence",75
same,"Plant response rating, Bermudagrass","[13]; 16 g ai/ha, Preemergence",100
same,"Plant response rating, Bermudagrass","[13]; 31 g ai/ha, Preemergence",100
same,"Plant response rating, Bermudagrass","[13]; 62 g ai/ha, Preemergence",100
same,"Plant response rating, Bermudagrass","[13]; Postemergence, 8 g ai/ha",40
same,"Plant response rating, Bermudagrass","[13]; Postemergence, 16 g ai/ha",40
same,"Plant response rating, Bermudagrass","[13]; Postemergence, 31 g ai/ha",70
same,"Plant response rating, Bermudagrass","[13]; Postemergence, 62 g ai/ha",90
same,"Plant response rating, Quackgrass","[14]; 16 g ai/ha, Preemergence",20
same,"Plant response rating, Quackgrass","[14]; 31 g ai/ha, Preemergence",50
same,"Plant response rating, Quackgrass","[14]; 62 g ai/ha, Preemergence",70
same,"Plant response rating, Quackgrass","[14]; Postemergence, 8 g ai/ha",0
same,"Plant response rating, Quackgrass","[14]; Postemergence, 16 g ai/ha",0
same,"Plant response rating, Quackgrass","[14]; Postemergence, 31 g ai/ha",30
same,"Plant response rating, Quackgrass","[14]; Postemergence, 62 g ai/ha",35
